# Tested on: TEAD-dependent transcription
# Test: TEAD-dependent transcription cell-based reporter assay (MSTO-211H+12XGTIIC luciferase)
# Parameters: species or system human
# Conditions: Homo sapiens; MSTO-211H+12XGTIIC cell line, luciferase signal normalized to cell viability, 24 hours compound incubation; read-out: MSTO-211H GMean IC50 (uM) Cell Assay Reporter Cell Variant: TEAD
# Summary of the method: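 MSTO-211H mesothelioma cells stably carrying a 12xGTIIC TEAD-response-element luciferase reporter, treated with serial compound dilutions for 24 h at 37 °C. Luminescence normalized to CellTiter-Fluor viability signal; % inhibition versus DMSO and 20 μM K-975 controls, IC50 by nonlinear regression.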
row,SMILES,IC50
1,"CC(=O)N1CCC(c2c(Oc3ccc(C(F)(F)F)cc3)ccc3c2CN(C(=O)CCS(C)(=O)=O)CC3)CC1 [P-0213, 1-(8-(1-acetylpiperidin-4-yl)-7-(4-(trifluorometh-yl)phenoxy)-3,4-dihydro-isoquinolin-2(1H)-yl)-3-(methylsulfonyl)pro-pan-1-one]",0.001 to 10 µM
2,"O=C1N[C@@H](CC(=O)N2CCc3ccc(Oc4ccc(C(F)(F)F)c(F)c4)cc3C2)CO1 [P-0140, (S)-4-(2-(7-(3-fluoro-4-(trifluoromethyl)phen-oxy)-3,4-dihydroisoquin-olin-2(1H)-yl)-2-oxoeth-yl)oxazolidin-2-one]",0.001 to 10 µM
3,"CP(C)(=O)CCC(=O)N1CCc2ccc(Oc3ccc(C(F)(F)F)cc3)cc2C1 [P-0041, 3-(dimethylphosphoryl)-1-(7-(4-(trifluorometh-yl)phenoxy)-3,4-dihydro-isoquinolin-2(1H)-yl)-propan-1-one]",0.001 to 10 µM
4,"C=CS(=O)(=O)N1CC(C(=O)N2CCc3ccc(Oc4ccc(C(F)(F)F)c(F)c4)cc3C2)C1 [P-0157, (7-(3-fluoro-4-(trifluoromethyl)phenoxy)-3,4-dihydroisoquinolin-2(1H)-yl)(1-(vinylsulfonyl)azetidin-3-yl)methanone]",0.001 to 10 µM
5,"O=C(CNS(=O)(=O)C(F)(F)F)N1CCc2ccc(Oc3ccc(C(F)(F)F)c(F)c3)cc2C1 [P-0114, 1,1,1-trifluoro-N-(2-(7-(3-fluoro-4-(trifluoromethyl)phenoxy)-3,4-dihydroisoquinolin-2(1H)-yl)-2-oxoethyl)methanesulfonamide]",0.001 to 10 µM
6,"O=C(CC1CCCCC1)N1CCc2c(cccc2Oc2ccc(C(F)(F)F)cc2)C1 [P-0267, 2-cyclohexyl-1-(5-(4-(trifluoromethyl)phen-oxy)-3,4-dihydroisoquin-olin-2(1H)-yl)ethan-1-one]",10 to 100 µM
7,"CC(C)(C)OC(=O)NCC(=O)N1CCc2ccc(Oc3ccc(C(F)(F)F)cc3)cc2C1 [P-0131, tert-butyl (2-oxo-2-(7-(4-(trifluoromethyl)phen-oxy)-3,4-dihydroisoquin-olin-2(1H)-yl)ethyl)-carbamate]",0.001 to 10 µM
8,"O=C(C1CCNCC1)N1CCc2ccc(Oc3ccc(C(F)(F)F)c(F)c3)cc2C1 [P-0147, (7-(3-fluoro-4-(trifluoro-methyl)phenoxy)-3,4-dihydroisoquinolin-2(1H)-yl)(piperidin-4-yl)-methanone]",0.001 to 10 µM
9,"CCC(=O)N1CCc2ccc(Oc3ccc(C(F)(F)F)cc3)cc2C1 [P-0014, 1-(7-(4-(trifluorometh-yl)phenoxy)-3,4-dihydroisoquinolin-2(1H)-yl)propan-1-one]",0.001 to 10 µM
10,"Nc1nc(CC(=O)N2CCc3ccc(Oc4ccc(C(F)(F)F)cc4)cc3C2)cs1 [P-0137, 2-(2-aminothiazol-4-yl)-1-(7-(4-(trifluoromethyl)-phenoxy)-3,4-dihydroiso-quinolin-2(1H)-yl)ethan-1-one]",0.001 to 10 µM
11,"CC(C)(C)OC(=O)NCC(=O)N1CCc2ccc(Oc3ccc(C(F)(F)F)c(F)c3)cc2C1 [P-0112, tert-butyl (2-(7-(3-fluoro-4-(trifluoromethyl)phen-oxy)-3,4-dihydroisoquin-olin-2(1H)-yl)-2-oxoeth-yl)carbamate]",0.001 to 10 µM
12,"N=C(N)NCCC(=O)N1CCc2ccc(Oc3ccc(C(F)(F)F)cc3)cc2C1 [P-0106, 1-(3-oxo-3-(7-(4-(trifluoromethyl)phen-oxy)-3,4-dihydroisoquin-olin-2(1H)-yl)propyl)-guanidine]",0.001 to 10 µM
13,"C=CC(=O)N1CCC(C2c3cc(Oc4ccc(C(F)(F)F)cc4)ccc3CCN2C(=O)CCS(C)(=O)=O)CC1 (centres unmarked) [P-0223, 1-(4-(2-(3-(methylsulfon-yl)propanoyl)-7-(4-(trifluoromethyl)phen-oxy)-1,2,3,4-tetrahydro-isoquinolin-1-yl)piper-idin-1-yl)prop-2-en-1-one]",0.001 to 10 µM
14,"NC(=O)NCC(=O)N1CCc2ccc(Oc3ccc(C(F)(F)F)cc3)cc2C1 [P-0079, 1-(2-oxo-2-(7-(4-(trifluoromethyl)phen-oxy)-3,4-dihydroisoquin-olin-2(1H)-yl)ethyl)urea]",0.001 to 10 µM
15,"O=C(CCn1cnnc1)N1CCc2c(cccc2Oc2ccc(C(F)(F)F)cc2)C1 [P-0250, 3-(4H-1,2,4-triazol-4-yl)-1-(5-(4-(trifluoromethyl)-phenoxy)-3,4-dihydro-isoquinolin-2(1H)-yl)-propan-1-one]",0.001 to 10 µM
16,"O=C(Cc1ccn[nH]1)N1CCc2c(cccc2Oc2ccc(C(F)(F)F)cc2)C1 [P-0241, 2-(1H-pyrazol-5-yl)-1-(5-(4-(trifluoromethyl)-phenoxy)-3,4-dihydroiso-quinolin-2(1H)-yl)ethan-1-one]",0.001 to 10 µM
17,"O=C(NC1CCOC1)N1CCc2ccc(Oc3ccc(C(F)(F)F)cc3)cc2C1 (centres unmarked) [P-0038, N-(tetrahydrofuran-3-yl)-7-(4-(trifluorometh-yl)phenoxy)-3,4-dihydro-isoquinoline-2(1H)-carboxamide]",0.001 to 10 µM

row,SMILES,IC50
1,"O=C(CCc1cnc[nH]1)N1CCc2ccc(Oc3ccc(C(F)(F)F)c(F)c3)cc2C1 [P-0151, 1-(7-(3-fluoro-4-(trifluoromethyl)phen-oxy)-3,4-dihydroisoquin-olin-2(1H)-yl)-3-(1H-imidazol-5-yl)propan-1-one]",0.001 to 10 µM
2,CN(CCC#N)C(=O)N1CCc2ccc(Oc3ccc(C(F)(F)F)cc3)cc2C1 [P-0066],0.001 to 10 µM
3,"COC(=O)N1CCc2ccc(Oc3ccc(C(F)(F)F)cc3)cc2C1 [P-0025, methyl 7-(4-(trifluoro-methyl)phenoxy)-3,4-dihydroisoquinoline-2(1H)-carboxylate]",0.001 to 10 µM
4,"C=CC(=O)Nc1nc(CC(=O)N2CCc3ccc(Oc4ccc(C(F)(F)F)c(F)c4)cc3C2)cs1 [P-0154, N-(4-(2-(7-(3-fluoro-4-(trifluoromethyl)phen-oxy)-3,4-dihydroisoquin-olin-2(1H)-yl)-2-oxoeth-yl)thiazol-2-yl)acrylamide]",0.001 to 10 µM
5,"Nc1nc(C(=O)N2CCc3ccc(Oc4ccc(C(F)(F)F)cc4)cc3C2)cs1 [P-0073, (2-aminothiazol-4-yl)(7-(4-(trifluoromethyl)phen-oxy)-3,4-dihydroisoquin-olin-2(1H)-yl)methanone]",0.001 to 10 µM
6,"C[C@@H](CO)NC(=O)N1CCc2c(cccc2Oc2ccc(C(F)(F)F)cc2)C1 [P-0268, (S)-N-(1-hydroxypropan-2-yl)-5-(4-(trifluorometh-yl)phenoxy)-3,4-dihydro-isoquinoline-2(1H)-carboxamide]",0.001 to 10 µM
7,"CCNS(=O)(=O)N1CCc2ccc(Oc3ccc(C(F)(F)F)cc3)cc2C1 [P-0017, N-Ethyl-7-(4-(trifluoromethyl)phenoxy)-3,4-dihydroisoquinoline-2(1H)-sulfonamide]",0.001 to 10 µM
8,"O=C(C1CCS(=O)(=O)CC1)N1CCc2ccc(Oc3ccc(C(F)(F)F)c(F)c3)cc2C1 [P-0143, (1,1-dioxidotetrahydro-2H-thiopyran-4-yl)(7-(3-fluoro-4-(trifluorometh-yl)phenoxy)-3,4-dihydro-isoquinolin-2(1H)-yl)-methanone]",0.001 to 10 µM
9,"NC(=O)NCC(=O)N1CCc2ccc(Oc3ccc(Cl)cc3)cc2C1 [P-0104, 1-(2-(7-(4-chlorophen-oxy)-3,4-dihydroisoquin-olin-2(1H)-yl)-2-oxoeth-yl)urea]",0.001 to 10 µM
10,"CS(=O)(=O)CCC(=O)N1CCc2ccc(Oc3ccc(C(F)(F)F)cc3)c(-c3cnn(CC4CC4)c3)c2C1 [P-0206, 1-(8-(1-(cyclopropyl-methyl)-1H-pyrazol-4-yl)-7-(4-(trifluorometh-yl)phenoxy)-3,4-dihydro-isoquinolin-2(1H)-yl)-3-(methylsulfonyl)-propan-1-one]",0.001 to 10 µM
11,"O=C(C1CCC1)N1CCc2ccc(Oc3ccc(C(F)(F)F)cc3)cc2C1 [P-0033, cyclobutyl(7-(4-(trifluoro-methyl)phenoxy)-3,4-dihydroisoquinolin-2(1H)-yl)methanone]",0.001 to 10 µM
12,"CCS(=O)(=O)NC(=O)N1CCc2c(cccc2Oc2ccc(C(F)(F)F)cc2)C1 [P-0238, N-(ethylsulfonyl)-5-(4-(trifluoromethyl)phen-oxy)-3,4-dihydroisoquin-oline-2(1H)-carboxamide]",0.001 to 10 µM
13,"CC(=O)N1CC(CC2c3cc(Oc4ccc(C(F)(F)F)cc4)ccc3CCN2C(=O)CCS(C)(=O)=O)C1 (centres unmarked) [P-0200, 1-(1-((1-acetylazetidin-3-yl)methyl)-7-(4-(trifluoromethyl)phen-oxy)-3,4-dihydroisoquin-olin-2(1H)-yl)-3-(methyl-sulfonyl)propan-1-one]",0.001 to 10 µM
14,"O=C(Cc1cn[nH]c1O)N1CCc2c(cccc2Oc2ccc(C(F)(F)F)cc2)C1 [P-0252, 2-(5-hydroxy-1H-pyr-azol-4-yl)-1-(5-(4-(trifluoromethyl)phen-oxy)-3,4-dihydroisoquin-olin-2(1H)-yl)ethan-1-one]",0.001 to 10 µM
15,"N#CCCC(=O)N1CCc2c(cccc2-c2ccc(C(F)(F)F)cc2)C1 [P-0273, 4-oxo-4-(5-(4-(trifluoromethyl)phenyl)-3,4-dihydroisoquinolin-2(1H)-yl)butanenitrile]",0.001 to 10 µM
16,"CC(=O)N1CCc2ccc(Oc3ccc(C(F)(F)F)cc3)cc2C1 [P-0013, 1-(7-(4-(trifluorometh-yl)phenoxy)-3,4-dihydroisoquinolin-2(1H)-yl)ethan-1-one]",0.001 to 10 µM
17,"CC(NS(C)(=O)=O)C(=O)N1CCc2ccc(Oc3ccc(C(F)(F)F)cc3)cc2C1 (centres unmarked) [P-0135, N-(1-oxo-1-(7-(4-(trifluoromethyl)phen-oxy)-3,4-dihydroisoquin-olin-2(1H)-yl)propan-2-yl)methanesulfonamide]",0.001 to 10 µM

# Same assay, conditions: MSTO-211H+12XGTIIC cell line, luciferase signal normalized to cell viability, 24 hours compound incubation; read-out: MSTO-211H GMean IC50 (uM) Cell Assay Reporter Cell Variant: TEAD
row,SMILES,IC50
1,"CC(=O)N1CCC(C2c3cc(Oc4ccc(C(F)(F)F)cc4)ccc3CCN2C(=O)CCS(C)(=O)=O)C1 (centres unmarked) [P-0204, 1-(1-(1-acetylpyrrolidin-3-yl)-7-(4-(trifluorometh-yl)phenoxy)-3,4-dihydro-isoquinolin-2(1H)-yl)-3-(methylsulfonyl)-propan-1-one]",0.001 to 10 µM

# From patent US20250129028A1, “COMPOUNDS AND METHODS FOR YAP/TEAD MODULATION AND INDICATIONS THEREFOR” (Opna Bio SA, priority 2022, published 2025)
